IC50 data for one compound are collected here from patent US20080200461A1, “MODULATORS OF ACETYL-COENZYME A CARBOXYLASE AND METHODS OF USE THEREOF” (Cropsolution, Inc., priority 2007, published 2008).

SMILES strings stand for the structures. pIC50: −log10 of the molar value.

The assay addresses Ustilago maydis K53R ACC (Mycosarcoma maydis, UniProt A0A0D1DYD5, K53R). Put plainly: biochemical. The class given is biochemical.

As a reminder, the pIC50 is −log10 of the IC50, conventionally taken in molar units. High values mean a low IC50, low ones a high IC50. For the compound `CC[N+](CC)(CCCCN(Cc1cc(C)cc(C)c1)Cc1cc(C)cc(C)c1)Cc1cc(C)cc(C)c1.[Br-]` [Compound 28, Diethyl(3,5-dimethylbenzyl)[bis-(3,5-dimethylbenzyl)aminobutyl]ammonium formate], the pIC50 was 4.28.
